Measurements from US11053253B2, “Macrocyclic compounds for treatment of medical disorders” (Achillion Pharmaceuticals, Inc., priority 2017, dated 2021).

target: Human Factor D (Homo sapiens (Human), UniProt P00746); assay: Human Factor D Assay; format: biochemical; details: Human Factor D 80 nM, substrate Z-L-Lys-SBzl, DTNB, A405; read-out: IC50 (Stars)
Procedure, shortened: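 Serum-purified enzyme (80 nM final) was preincubated with compound 5 min at room temperature in 50 mM Tris, 1M NaCl, pH 7.5. Z-L-Lys-SBzl and DTNB ([…] each, final) were added and A405 followed every 30 s for 30 min; IC50 from nonlinear regression of reaction rates.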

Human Factor D, sequence (P00746 26-253): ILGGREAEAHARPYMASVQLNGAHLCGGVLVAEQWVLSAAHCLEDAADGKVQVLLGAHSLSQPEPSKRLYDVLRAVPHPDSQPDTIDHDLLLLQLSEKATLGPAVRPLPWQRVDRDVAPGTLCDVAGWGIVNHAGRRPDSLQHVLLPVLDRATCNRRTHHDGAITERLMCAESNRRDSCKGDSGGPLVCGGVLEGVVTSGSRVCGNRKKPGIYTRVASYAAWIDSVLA

CC(=O)c1nn2c3c(cc(-c4cnc(C)nc4)cc13)CC=CCCCC(=O)NC[C@@]13C[C@@H](C(=O)Nc4nc(C(F)(F)F)ccc4C)N(C(=O)C2)[C@@H]1C3 [Compound T-219] and CC(=O)c1nn2c3c(cc(-c4cnc(C)nc4)cc13)C=CCCCCC(=O)NC[C@@]13C[C@@H](C(=O)Nc4nc(C(F)(F)F)ccc4C)N(C(=O)C2)[C@@H]1C3 [Compound T-51] cannot be ordered by IC50: less than 1000 nM for the first, less than 1000 nM for the second.

C=C1COCc2ccc(Br)nc2NC(=O)[C@@H]2C[C@]3(C[C@H]3N2C(=O)Cn2nc(C(C)=O)c3cc(-c4cnc(C)nc4)ccc32)Cn2cc1cn2 [Compound T-66] and CC(=O)c1nn(CC(=O)N2[C@H]3C[C@]4(C[C@@H]24)CN(C)CC=CCOCc2ccc(Br)nc2NC3=O)c2ccc(-c3cnc(C)nc3)cc12 [Compound T-6, (41R,43S,45R)-42-(2-(3-acetyl-5-(2-methylpyrimidin-5-yl)-1H-indazol-1-yl)acetyl)-16-bromo-6-methyl-11-oxa-42,2,6-triaza-1(2,3)-pyridina-4(3,5)-bicyclo[3.1.0]hexanacyclododecaphan-8-en-3-one] cannot be ordered by IC50: less than 1000 nM for the first, less than 1000 nM for the second.

Cc1ncc(-c2cc3c4c(c2)c(C(N)=O)nn4CC(=O)N2[C@H](C(=O)Nc4nc(Br)ccc4C)C[C@@]4(CNC(=O)CCCC=CC3)C[C@@H]24)cn1 [Compound T-152] and CC(=O)c1nn2c3c(cc(-c4cnc(C)nc4)cc13)CC=CCCCC(=O)NC[C@@]13C[C@@H](C(=O)Nc4cc(C)cc(Br)n4)N(C(=O)C2)[C@@H]1C3 [Compound T-189] cannot be ordered by IC50: less than 1000 nM for the first, less than 1000 nM for the second.

Compared with CC(=O)c1nn2c3c(cc(-c4cnc(C)nc4)cc13)CCCCCCCCc1cn(nn1)C[C@@]13C[C@@H](C(=O)Nc4nc(Br)ccc4C)N(C(=O)C2)[C@@H]1C3 [Compound T-53], CC(=O)c1nn2c3c(cc(-c4cnc(C)nc4)cc13)CCCCCCCN(C)C[C@@]13C[C@@H](C(=O)Nc4nc(Br)ccc4C)N(C(=O)C2)[C@@H]1C3 [Compound T-122] is higher in IC50: less than 1000 nM for the first, 1000 to 10000 nM for the second. The first is the more potent here.

CC(=O)c1nn(CC(=O)N2[C@H]3C[C@@]4(C=CCCCCCCc5ccc(Br)nc5NC3=O)C[C@@H]24)c2cnc(-c3cnc(C)nc3)cc12 [Compound T-43] and CC(=O)c1nn(CC(=O)N2[C@H]3C[C@@]4(CCCCCCCCc5ccc(Br)nc5NC3=O)C[C@@H]24)c2cnc(-c3cnc(C)nc3)cc12 [Compound T-46] cannot be ordered by IC50: less than 1000 nM for the first, less than 1000 nM for the second.

CC(=O)c1nn2c3c(cc(-c4cnc(C)nc4)cc13)CCCCCCC(=O)N(C)C[C@@]13C[C@@H](C(=O)Nc4nc(C(F)(F)F)ccc4C)N(C(=O)C2)[C@@H]1C3 [Compound T-93] and CC(=O)c1nn2c3c(cc(-c4cnc(C)nc4)cc13)CCCCCCCOC[C@@]13C[C@@H](C(=O)Nc4nc(C(F)(F)F)ccc4C)N(C(=O)C2)[C@@H]1C3 [Compound T-102] cannot be ordered by IC50: less than 1000 nM for the first, less than 1000 nM for the second.

CC(=O)c1nn(CC(=O)N2[C@H]3C[C@@]4(CNC(=O)CCOCc5ccc(Br)nc5NC3=O)C[C@@H]24)c2ccc(-c3cnc(C)nc3)cc12 [Compound T-164] and CC(=O)c1nn(CC(=O)N2[C@H]3C[C@@]4(CNC(=O)C(C)(C)CCCCOCc5ccc(Br)nc5NC3=O)C[C@@H]24)c2ccc(-c3cnc(C)nc3)cc12 [Compound T-117] cannot be ordered by IC50: less than 1000 nM for the first, less than 1000 nM for the second.

Cc1ncc(-c2cc3c(C(N)=O)nn4c3c(n2)CCCCCCOC[C@@]23C[C@@H](C(=O)Nc5nc(C(F)(F)F)ccc5C)N(C(=O)C4)[C@@H]2C3)cn1 [Compound T-156] and Cc1ncc(-c2cc3c(C#N)nn4c3c(n2)CCCCCCOC[C@@]23C[C@@H](C(=O)Nc5nc(C(F)(F)F)ccc5C)N(C(=O)C4)[C@@H]2C3)cn1 [Compound T-155] cannot be ordered by IC50: less than 1000 nM for the first, less than 1000 nM for the second.

CC(=O)c1nn2c3c(cc(-c4cnc(C)nc4)cc13)CCCCCCC(=O)NC[C@@]13C[C@@H](C(=O)Nc4cc(C)cc(Br)n4)N(C(=O)C2)[C@@H]1C3 [Compound T-190] and CC(=O)c1nn2c3c(cc(-c4cnc(C)nc4)cc13)CCCCCCC(=O)NC[C@@]13C[C@@H](C(=O)Nc4cncc(Br)n4)N(C(=O)C2)[C@@H]1C3 [Compound T-234] cannot be ordered by IC50: less than 1000 nM for the first, less than 1000 nM for the second.

CC(=O)c1nn(CC(=O)N2[C@H]3C[C@@]4(CCCCCCCOCc5ccc(Br)nc5NC3=O)C[C@@H]24)c2c(CF)cc(-c3cnc(C)nc3)cc12 [Compound T-87] and CC(=O)c1nn(CC(=O)N2[C@H]3C[C@@]4(COCCCCOCc5ccc(Br)nc5NC3=O)C[C@@H]24)c2c(CF)cc(-c3cnc(C)nc3)cc12 [Compound T-78] cannot be ordered by IC50: less than 1000 nM for the first, less than 1000 nM for the second.

CC(=O)c1nn2c3c(cc(-c4cnc(C)nc4)cc13)CCCCCC(C)(C)C(=O)NC[C@@]13C[C@@H](C(=O)Nc4ccn(CC(F)(F)F)n4)N(C(=O)C2)[C@@H]1C3 [Compound T-185] and CC(=O)c1nn2c3c(cc(-c4cnc(C)nc4)cc13)CC=CCCCC(=O)N(C)C[C@@]13C[C@@H](C(=O)Nc4ccn(CC(F)(F)F)n4)N(C(=O)C2)[C@@H]1C3 [Compound T-204] cannot be ordered by IC50: less than 1000 nM for the first, less than 1000 nM for the second.

CC(=O)c1nn2c3c(cc(-c4cnc(C)nc4)cc13)CCCCCCC(=O)NC[C@@]13C[C@@H](C(=O)N[C@H](C)COC(F)(F)F)N(C(=O)C2)[C@@H]1C3 [Compound T-207] and CC(=O)c1nn2c3c(cc(-c4cnc(C)nc4)cc13)CCCCCCC(=O)NC[C@@]13C[C@@H](C(=O)N[C@H](C)c4ccccc4)N(C(=O)C2)[C@@H]1C3 [Compound T-188] cannot be ordered by IC50: less than 1000 nM for the first, less than 1000 nM for the second.

CC(=O)c1nn2c3c(cc(-c4cnc(C)nc4)cc13)CCCCNC(=O)NC[C@@]13C[C@@H](C(=O)Nc4nc(C(F)(F)F)ccc4C)N(C(=O)C2)[C@@H]1C3 [Compound T-237] and CC(=O)c1nn2c3c(cc(-c4cnc5cc(C)nn5c4)cc13)CCCCCCC(=O)NC[C@@]13C[C@@H](C(=O)Nc4nc(C(F)(F)F)ccc4C)N(C(=O)C2)[C@@H]1C3 [Compound T-256] cannot be ordered by IC50: less than 1000 nM for the first, less than 1000 nM for the second.

CC(=O)c1nn(CC(=O)N2[C@H]3C[C@]4(C[C@@H]24)Cn2ccc(n2)C=CCCC(F)(F)c2ccc(Br)nc2NC3=O)c2ccc(-c3cnc(C)nc3)cc12 [Compound T-104] and CC(=O)c1nn(CC(=O)N2[C@H]3C[C@]4(C[C@@H]24)Cn2ccc(n2)/C=C\COCc2ccc(Br)nc2NC3=O)c2cnc(-c3cnc(C)nc3)cc12 [Compound T-70] cannot be ordered by IC50: less than 1000 nM for the first, less than 1000 nM for the second.

CC(=O)c1nn2c3c(cc(-c4cnc(C)nc4)cc13)CCCCCCCCCC[C@@]13C[C@@H](C(=O)Nc4nc(Br)ccc4C)N(C(=O)C2)[C@@H]1C3 [Compound T-109] and CC(=O)c1nn2c3c(cc(-c4cnc(C)nc4)cc13)CCCCCCc1cccc(n1)OC[C@@]13C[C@@H](C(=O)Nc4nc(Br)ccc4C)N(C(=O)C2)[C@@H]1C3 [Compound T-140] cannot be ordered by IC50: less than 1000 nM for the first, less than 1000 nM for the second.

CC(=O)c1nn2c3c(cc(-c4ccc5nc(C)nn5c4)cc13)CCCCCCC(=O)NC[C@@]13C[C@@H](C(=O)Nc4nc(C(F)(F)F)ccc4C)N(C(=O)C2)[C@@H]1C3 [Compound T-257] and CC(=O)c1nn2c3c(cc(-c4cnc(C)nc4)cc13)CCCCCCC(=O)NC[C@@]13C[C@@H](C(=O)N[C@@H](C)c4ccccc4)N(C(=O)C2)[C@@H]1C3 [Compound T-176] cannot be ordered by IC50: less than 1000 nM for the first, less than 1000 nM for the second.

CC(=O)c1nn(CC(=O)N2[C@H]3C[C@]4(C[C@@H]24)CN(C)CCCCCCCc2ccc(Br)nc2NC3=O)c2c(C)cc(-c3cnc(C)nc3)cc12 [Compound T-71] and CC(=O)c1nn(CC(=O)N2[C@H]3C[C@@]4(COCCCCOCc5ccc(Br)nc5NC3=O)C[C@@H]24)c2ccc(-c3cnc(C)nc3)cc12 [Compound T-4, (41R,43S,45S)-42-(2-(3-acetyl-5-(2-methylpyrimidin-5-yl)-1H-indazol-1-yl)acetyl)-16-bromo-6,11-dioxa-42,2-diaza-1(2,3)-pyridina-4(3,5)-bicyclo[3.1.0]hexanacyclododecaphan-3-one] cannot be ordered by IC50: less than 1000 nM for the first, less than 1000 nM for the second.

CC(=O)c1nn(CC(=O)N2[C@H]3C[C@@]4(COCC=CCOCc5ccc(Br)nc5NC3=O)C[C@@H]24)c2ccccc12 [Compound T-10, (41R,43S,45S)-42-(2-(3-acetyl-1H-indazol-1-yl)acetyl)-16-bromo-6,11-dioxa-42,2-diaza-1(2,3)-pyridina-4(3,5)-bicyclo[3.1.0]hexanacyclododecaphan-8-en-3-one] and CC(=O)c1nn(CC(=O)N2[C@H]3C[C@@]4(COC/C=C/COCc5ccc(Br)nc5NC3=O)C[C@@H]24)c2cnc(-c3cnc(C)nc3)cc12 [Compound T-44] cannot be ordered by IC50: less than 1000 nM for the first, less than 1000 nM for the second.

Compared with CC(=O)c1cc2n(n1)CC(=O)N1[C@@H](C[C@@]3(C)C[C@@H]13)C(=O)Nc1nc(Br)ccc1COC/C=C/CCNC2=O [Compound T-14, (18aS,19aR,20aR,E)-2-acetyl-15-bromo-19a-methyl-6,7,12,17,18a,19,19a,20,20a,23-decahydro-4H-cyclopropa[4,5]pyrrolo[2,1-g]pyrazolo[1,5-k]pyrido[3,2-c][1,5,8,11,14]oxatetraazacyclononadecine-4,18,22(5H,10H)-trione], CC(=O)c1nn(CC(=O)N2[C@H]3C[C@@]4(CNC(=O)C(C)(C)CC=CCOCc5ccc(Br)nc5NC3=O)C[C@@H]24)c2ccc(-c3cnc(C)nc3)cc12 [Compound T-115] is lower in IC50: greater than 10000 nM for the first, less than 1000 nM for the second.

CC(=O)c1nn(CC(=O)N2C[C@@]3(F)COCCCCCCc4ccc(Br)nc4NC(=O)[C@@H]2C3)c2ccc(-c3cnc(C)nc3)cc12 [Compound T-195] and CC(=O)c1nn(CC(=O)N2C[C@@]3(F)COCCCCOCc4ccc(Br)nc4NC(=O)[C@@H]2C3)c2cnc(-c3cnc(C)nc3)cc12 [Compound T-161] cannot be ordered by IC50: less than 1000 nM for the first, less than 1000 nM for the second.

Compound CC(=O)c1nn(CC(=O)N2[C@H]3C[C@@]4(CNS(=O)(=O)CCC=Cc5ccc(Br)nc5NC3=O)C[C@@H]24)c2cnccc12 [Compound T-16, (41R,43S,45R)-42-(2-(3-acetyl-1H-pyrazolo[3,4-c]pyridin-1-yl)acetyl)-16-bromo-7-thia-42,2,6-triaza-1(2,3)-pyridina-4(3,5)-bicyclo[3.1.0]hexanacycloundecaphan-10-en-3-one 7,7-dioxide] has an IC50 of less than 1000 nM.
